Results reported in publication PMC7887208 (2021).

Experiments:
[1] = system: Pu22T14T23 (DNA, G4) TGAGGGTGGGTAGGGTGGGTAA; test: 1H NMR titration and NOESY; conditions: 70 mM KCl
[2] = system: Pu22T14T23 (DNA, G4) TGAGGGTGGGTAGGGTGGGTAA; test: reverse fluorescence titration (DNA titrated with ligand), EQUISPEC fit; conditions: 70 mM KCl; 25 mM phosphate pH 6.9, 20 °C; 2.4 µM DNA; overall constant of 1:2 model
[3] = system: d(TTAGGGT)4 (DNA, G4) TTAGGGT; test: 1H NMR titration and NOESY; conditions: 150 mM KCl; 25 mM K-phosphate pH 6.7, 1 mM EDTA, 25 °C; sites A3-G4 and over G6
[4] = system: d(AAGAATTCTT)2 ("AATT") (DNA, duplex) AAGAATTCTT; test: 1H and 31P NMR titration; conditions: 0.1 M NaCl; 10 mM sodium phosphate pH 7.0, 15 °C; external interaction, no intercalation
[5] = system: d(TTAGGGT)4 (DNA, G4) TTAGGGT; test: ligand fluorescence titration, EQUISPEC fit; conditions: 3 µM ligand, 1:1 model
[6] = system: d(CGTACG)2 ("CG") (DNA, duplex) CGTACG; test: 1H and 31P NMR titration; conditions: 0.1 M NaCl; 10 mM sodium phosphate pH 7.0, 15 °C; partial intercalation
[7] = system: Pu22T14T23 (DNA, G4) TGAGGGTGGGTAGGGTGGGTAA; test: ligand fluorescence titration, EQUISPEC fit; conditions: 3 µM ligand, 1:1 model
[8] = 70 mM KCl, 25 mM phosphate pH 6.9, 20 °C

| overall Kb [2] | binding [4] | Kb [5, 8] | Kb ([5]; PBS (Na+; composition not given), PBS, 20 °C, printed as d(TTAGGG)4) | binding [6] | Kb [7, 8] | binding ([7]; PBS (Na+; composition not given), PBS, 20 °C, stated similar to K+ buffer) | Structure (SMILES) | binding ([1]; 25 mM KH2PO4 pH 6.9, 25 °C, no shift change, no NOE) | binding [3] | binding ([1]; 25 mM phosphate pH 6.9, 25 °C, stacks on 5' and 3' end tetrads) |
| --- | --- | --- | --- | --- | --- | --- | --- | --- | --- | --- |
| – | – | – | – | – | – | – | C[C@]1(c2nc3c(C(N)=O)cccc3[nH]2)CCCN1 | no | – | – |
| 10^12.8 M^-2 | weak | ~ 10^6.1 M^-1 | ~ 10^5.1 M^-1 | weak | ~ 10^6.1 M^-1 | yes | NC(=O)Cn1ccc2ccc(-c3ccc(CN4CCCC4)cc3)nc21 | – | yes | yes |
